Experiment [1] deals with wild type strain W3110. It counts as cell-based.
Experiment [2] concerns PhoU transposon mutant (JHU-313). It counts as cell-based.
The subject of experiment [3] is PhoU deletion mutant (ΔphoU). It counts as cell-based.
Experiment [4] has as its system PhoU mutant (JHU-313). Put plainly: MIC/MBC by serial two-fold dilutions in LB broth. The class given is cell-based, E. coli. The following applies: 16 h at 37° C.
Experiment [5] has as its system JHU-313 containing pVector. Briefly: Kirby-Bauer paper disc assay, zone inhibition.
Description: (§1) The sensitivity of the bacterial strains to antibiotics or peroxide was determined by Kirby-Bauer's paper disc assay as measured by zone inhibition in millimeters.
(§2) The sensitivity of bacterial strains to antibiotics or stresses was also assessed by the Kirby-Bauer method (2) using paper discs. E. coli bacteria were grown to log phase (10^8 bacteria) in LB broth. An inoculum from this culture was spread across the surfaces of LB plates to provide confluent growth. Nitrocellulose discs (7 mm in diameter) soaked with appropriate antibiotics or stress agents (100 mM H2O2, were placed on the agar surface). After incubation at 37° C. for 48 h, the diameter of the zone of growth inhibition was measured and scored according to the size of the zone of inhibition, which is directly proportional to the sensitivity of the organism to the antibiotic.
The subject of experiment [6] is JHU-313 containing pVector. Put plainly: MIC/MBC by serial two-fold dilutions in LB broth. The class given is cell-based, E. coli. The following applies: 16 h at 37° C.
The test system of experiment [7] is wild type strain W3110. It counts as cell-based, E. coli. The settings on record: for CFU after second antibiotic exposure: 20 h after 1.5 h ampicillin pre-exposure, ampicillin 100, gentamicin 20, trimethoprim 16, norfloxacin 5 μg/ml.
Experiment [8] concerns W3110. Briefly: microbe, parasite or virus in culture. The following applies: Escherichia coli, read-out: zone inhibition.
Description: as §1, §2
Experiment [9] concerns JHU-313 containing pPhoU. Briefly: MIC/MBC by serial two-fold dilutions in LB broth. It counts as cell-based, E. coli. The settings on record: 16 h at 37° C.
Experiment [10] concerns wild type strain W3110. Briefly: microbe, parasite or virus in culture. It counts as cell-based, E. coli. The following applies: LB broth, 16 h at 37° C.
A further experiment relates to JHU-313. Briefly: Kirby-Bauer paper disc assay, zone inhibition.
Experiment [11] has as its system PhoU mutant (JHU-313). Briefly: Sequential antibiotic exposure of ampicillin persisters (CFU). The following applies: for CFU after second antibiotic exposure: 20 h after 1.5 h ampicillin pre-exposure, ampicillin 100, gentamicin 20, trimethoprim 16, norfloxacin 5 μg/ml. The class given is cell-based, E. coli.
Experiment [12] deals with JHU-313 containing pPhoU. Briefly: Kirby-Bauer paper disc assay, zone inhibition.
Description: as §1, §2
Experiment [13] deals with W3110.
Description: as §1, §2
For another experiment, the target named is PhoY2 (Mycobacterium tuberculosis, UniProt P9WI95). Briefly: EnzChek phosphatase assay, FDA approved compound library screen. It counts as biochemical, M. tuberculosis. The settings on record: 50 μM final concentration; 30 min, 60 min and overnight. As to the method:
The FDA approved compound library consisting of about 3000 clinical compounds (50 μM final concentration) was screened for inhibitory activity for M. tuberculosis PhoU homolog PhoY2 for phosphatase activity using the EnzChek phosphatase assay kit in a 96 well plate format. The assay was run for 30 min, 60 min and overnight when the plates were read in a fluorescence plate reader (Perkin Elmer). Aurintricarboxylic acid, a known phosphatase inhibitor, was included as a positive control.

The next experiment concerns the target T1, PhoU (Escherichia coli, UniProt P0A9K7).
T1 construct: His; made in house
Put plainly: PhoU phosphatase substrate specificity. The following applies: pH5, pH7 and pH8. The class given is biochemical, E. coli. As to the method: Different substrates for the PhoU phosphatase activity were tested. […] For PhoU, the substrates acetyl-P, carbamoyl-P, imido-di phosphate (imido-di-P), r-nitrophenyl phosphate (rNPP), β-Nicotinamide adenine dinucleotide phosphate (NADP), Glucose-1,6-bisphosphate (Glucose-1,6-bisP) were tested at pH5, pH7, and pH8 condition, as potential PhoU phosphatase activity.

A further experiment has as its system H37Rv. Put plainly: microbe, parasite or virus in culture. The following applies: Mycobacterium tuberculosis, 240 h, 10 days at 37° C. It counts as cell-based, M. tuberculosis.
Setting [14] is: log phase, 100 μg/ml, 24 hr exposure.
Where [15] appears, read: log phase, 1 week, Ap100, Norf3.
[16] abbreviates: log phase, 5 hr, ampicillin 100 μg/ml (Ap100), norfloxacin 3 μg/ml (Norf3).
[17] abbreviates: log phase, 3 days, Ap100, Norf3.
[18] abbreviates: log phase, 5 days, Ap100, Norf3.
[19] abbreviates: log phase, 10 days, Ap100, Norf3.
The mark [20] stands for this setting: log phase, ampicillin 100 μg/ml, norfloxacin 3 μg/ml.
Setting [21] is: stationary phase, 100 μg/ml, 72 hr.
Where [22] appears, read: stationary phase, 1 week, Ap100, Norf3.
The mark [23] stands for this setting: stationary phase, 5 hr, ampicillin 100 μg/ml (Ap100), norfloxacin 3 μg/ml (Norf3).
Where [24] appears, read: stationary phase, 1 day, Ap100, Norf3.
[25] abbreviates: stationary phase, 3 days, Ap100, Norf3.
[26] abbreviates: stationary phase, 5 days, Ap100, Norf3.
Where [27] appears, read: stationary phase, 10 days, Ap100, Norf3.
Setting [28] is: Escherichia coli, read-out: MBC.
[29] abbreviates: Escherichia coli, read-out: MIC.
[30] abbreviates: Escherichia coli, read-out: zone inhibition.
The mark [31] stands for this setting: log phase, ampicillin 100 μg/ml, 1.5 h.

Converted amounts (≈) assume the structure as drawn. Where two headings read alike, the source gives them in different places.

Sequence of PhoY2 (P9WI95 whole entry): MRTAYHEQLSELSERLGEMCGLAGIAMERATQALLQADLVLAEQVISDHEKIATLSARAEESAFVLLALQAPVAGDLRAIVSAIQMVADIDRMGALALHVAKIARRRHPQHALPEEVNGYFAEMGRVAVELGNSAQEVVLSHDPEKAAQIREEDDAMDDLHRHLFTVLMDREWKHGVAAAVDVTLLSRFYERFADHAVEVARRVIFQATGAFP
T1 sequence (P0A9K7 whole entry): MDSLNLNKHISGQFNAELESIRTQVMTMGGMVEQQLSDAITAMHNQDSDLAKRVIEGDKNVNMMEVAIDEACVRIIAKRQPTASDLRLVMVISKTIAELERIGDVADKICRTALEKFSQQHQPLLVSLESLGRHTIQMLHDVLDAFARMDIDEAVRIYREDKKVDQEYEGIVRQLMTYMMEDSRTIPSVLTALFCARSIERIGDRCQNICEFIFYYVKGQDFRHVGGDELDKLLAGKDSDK

On to `CC1(C)S[C@@H]2[C@H](NC(=O)[C@H](N)c3ccccc3)C(=O)N2[C@H]1C(=O)O` [Ampicillin, ampicillin], for which the viable bacteria left in the experiment with wild type strain W3110 [1] (setting [14]) is reported as 10-100. Besides, the CFU is listed as 0 CFU with wild type strain W3110 [1] (setting [15]); 3 × 10^3 CFU in the experiment on wild type strain W3110 [1] (setting [16]); 10 CFU in the experiment on wild type strain W3110 [1] (log phase, 1 day, Ap100, Norf3); 0 CFU in the experiment on wild type strain W3110 [1] (setting [17]); 0 CFU in the experiment with wild type strain W3110 [1] (setting [18]); 0 CFU in the experiment with wild type strain W3110 [1] (setting [19]). Besides, the CFU in the experiment with wild type strain W3110 [1] (setting [22]) is given as 5 × 10^6 CFU; in the experiment with wild type strain W3110 [1] (setting [23]) it was 5 × 10^9 CFU; in the experiment on wild type strain W3110 [1] (setting [24]) it was 3 × 10^9 CFU; in the experiment on wild type strain W3110 [1] (setting [25]) it was 1 × 10^8 CFU; in the experiment on wild type strain W3110 [1] (setting [26]) it was 3 × 10^7 CFU; in the experiment with wild type strain W3110 [1] (setting [27]) it was 2 × 10^5 CFU. In addition, the CFU in experiment [2] (setting [15]) is 0 CFU; in experiment [2] (setting [16]) it was 20 CFU; in experiment [2] (log phase, 1 day, Ap100, Norf3), 0-1 CFU; in experiment [2] (setting [17]) it was 0 CFU; in experiment [2] (setting [18]) it was 0 CFU; in experiment [2] (setting [19]) it was 0 CFU. Besides, the CFU was 0 CFU in experiment [2] (setting [22]); 2 × 10^8 CFU in experiment [2] (setting [23]); 1 × 10^7 CFU in [2] (setting [24]); 0 CFU in experiment [2] (setting [25]); 0 CFU in [2] (setting [26]); 0 CFU in [2] (setting [27]). Besides, the CFU was 0 CFU in [3] (setting [15]); 6 × 10^2 CFU in [3] (setting [16]); 0-1 CFU in [3] (log phase, 1 day, Ap100, Norf3); 0 CFU in experiment [3] (setting [17]); 0 CFU in [3] (setting [18]); 0 CFU in experiment [3] (setting [19]). For the same molecule, the CFU in experiment [3] (setting [22]) is reported as 0 CFU; in [3] (setting [23]), 6 × 10^8 CFU; in [3] (setting [25]), 0 CFU; in experiment [3] (setting [26]), 0 CFU; in [3] (setting [27]), 0 CFU. Besides, the “time to killing of all cells” value (in the experiment on wild type strain W3110 [1] (setting [20]); in [2] (setting [20]); in experiment [3] (setting [20])) was “all cells were killed by three days” throughout. The viable cells in the experiment with wild type strain W3110 [1] (setting [21]) is 10^8 CFU/ml. Moreover, the “killed more than the wild type strain” value in [2] (log phase, 100 μg/ml, 3 hr) is “about 100 fold”. Further, the viable cells remaining entry in experiment [2] (setting [14]) was “no viable cells remained”. In experiment [2] (setting [21]), the sterilization of culture entry is listed as “completely sterilized”. For the same molecule, the MBC turned out to be 6.25 µg/mL (≈ 17.9 µM) in the experiment with PhoU mutant (JHU-313) [4] (setting [28]); 6.25 µg/mL (≈ 17.9 µM) in experiment [6] (setting [28]); 12.5 µg/mL (≈ 35.8 µM) with JHU-313 containing pPhoU [9] (setting [28]); 12.5 µg/mL (≈ 35.8 µM) with wild type strain W3110 [10] (Escherichia coli, W3110, read-out: MBC). The MIC was found to be 1.5 µg/mL (≈ 4.29 µM) in the experiment with PhoU mutant (JHU-313) [4] (setting [29]); 3.1 µg/mL (≈ 8.87 µM) in [6] (setting [29]); 3.1 µg/mL (≈ 8.87 µM) with JHU-313 containing pPhoU [9] (setting [29]); 3.1 µg/mL (≈ 8.87 µM) in the experiment on wild type strain W3110 [10] (Escherichia coli, W3110, read-out: MIC). For the same molecule, the zone of inhibition at 1.5 µg/mL stood at 27 mm in experiment [5] (setting [30]), 21 mm in the experiment on W3110 [8], 25 mm in the experiment on JHU-313 (setting [30]) and 25 mm in the experiment on JHU-313 containing pPhoU [12] (setting [30]). For the same molecule, the zone of inhibition at 6 µg/mL was determined as 34 mm in experiment [5] (setting [30]), 25 mm with W3110 [8], 30 mm with JHU-313 (setting [30]) and 32 mm in the experiment on JHU-313 containing pPhoU [12] (setting [30]). In addition, the zone of inhibition at 25 µg/mL in experiment [5] (setting [30]) turned out to be 40 mm; with W3110 [8], 28 mm; in the experiment on JHU-313 (setting [30]), 35 mm; with JHU-313 containing pPhoU [12] (setting [30]) it was 36 mm. Moreover, the zone of inhibition at 100 µg/mL is 45 mm in experiment [5] (setting [30]), 35 mm in the experiment with W3110 [8], 40 mm in the experiment with JHU-313 (setting [30]) and 40 mm in the experiment on JHU-313 containing pPhoU [12] (setting [30]). For the same molecule, the results for the “CFU after second antibiotic exposure” value with wild type strain W3110 [7] and with PhoU mutant (JHU-313) [11] were 7 × 10^5 CFU/ml and 0 CFU/ml, respectively. The “decrease in CFU count” value in the experiment on wild type strain W3110 [7] (log phase, 100 μg/ml, 1.5 hr) came to 3 log; in the experiment on PhoU mutant (JHU-313) [11] (log phase, 100 μg/ml, 1.5 hr) it was 3 log. Besides, the “CFU after ampicillin treatment” value in the experiment on wild type strain W3110 [7] (setting [31]) was 7 × 10^4 CFU/ml; with PhoU mutant (JHU-313) [11] (setting [31]), 4 × 10^4 CFU/ml.
In the case of `OO` [Hydrogen peroxide, hydrogen peroxide], the zone inhibition is 46 mm in [5] (peroxide (30%)), 30 mm with W3110 [13], 37 mm with JHU-313 (peroxide (30%)) and 39 mm in the experiment on JHU-313 containing pPhoU [12] (peroxide (30%)).
On to gentamicin, for which the MBC against PhoU mutant (JHU-313) [4] turned out to be 2.5 µg/mL; in experiment [6] it was 2.5 µg/mL; against JHU-313 containing pPhoU [9], 5 µg/mL; with wild type strain W3110 [10], 5 µg/mL. For the same molecule, the MIC against PhoU mutant (JHU-313) [4] stood at 1.25 µg/mL; in experiment [6] it was 1.25 µg/mL; against JHU-313 containing pPhoU [9], 2.5 µg/mL; in the experiment with wild type strain W3110 [10], 2.5 µg/mL. In addition, the zone inhibition is listed as 22 mm in experiment [5] (0.1 μg/ml); 29 mm in [5] (0.5 μg/ml); 30 mm in [5] (2 μg/ml); 31 mm in experiment [5] (10 μg/ml); 14 mm in the experiment with W3110 [13] (0.1 μg/ml); 20 mm with W3110 [13] (0.5 μg/ml). In addition, the zone inhibition in the experiment on W3110 [13] (2 μg/ml) was found to be 22 mm; in the experiment on W3110 [13] (10 μg/ml), 25 mm; in the experiment on JHU-313 (0.1 μg/ml), 20 mm; with JHU-313 (0.5 μg/ml), 22 mm; with JHU-313 (2 μg/ml) it was 26 mm; in the experiment with JHU-313 (10 μg/ml), 27 mm. Moreover, the zone inhibition in the experiment with JHU-313 containing pPhoU [12] (0.1 μg/ml) is 17 mm; with JHU-313 containing pPhoU [12] (0.5 μg/ml), 22 mm; in the experiment with JHU-313 containing pPhoU [12] (2 μg/ml), 24 mm; with JHU-313 containing pPhoU [12] (10 μg/ml), 28 mm. In addition, the entries for the “CFU after second antibiotic exposure” value in the experiment on wild type strain W3110 [7] and in the experiment with PhoU mutant (JHU-313) [11] were 5 × 10^5 CFU/ml and 2 × 10^3 CFU/ml, respectively.
On to `C1CNCCN1` [piperazine], for which the “inhibition of PhoY2 enzyme activity in library screen” value against PhoY2 was “inhibit PhoY2 enzyme activity”.
With `CC(=O)OP(=O)(O)O` [acetyl-P, acetyl phosphate], the “rank as PhoU phosphatase substrate” value on PhoU is “acetyl-P>rNPP>carbamoyl-P>Glucose-1,6-bisP>NADP”.
Turning to `NNC(=O)c1ccncc1` [INH, isoniazid], the MIC in the experiment with H37Rv is 0.2 µg/mL (≈ 1.46 µM).

The values above are taken from patent US20100210602A1, “PhoU (PerF), A P[…] INVOLVED IN [sequence] FORMATION AND TOLERANCE TO MULTIPLE ANTIBIOTICS AND [sequence] AS A DRUG TARGET FOR [sequence] BACTERIA” (priority 2006, published 2010).
